According to US20050209157A1, “Short bioactive peptides and methods for their use” (priority 2001, published 2005):
No end group written: not given here.

How the values were obtained:
[1] = tested on: P. aeruginosa H374; type: cell-based, Pseudomonas aeruginosa; settings: Table 14; in µg/mL
[2] = tested on: S. epidermidis C621; type: cell-based, Staphylococcus epidermidis; settings: Table 15
[3] = tested on: Candida albicans 105; type: cell-based; settings: Table 15; in µg/mL
[4] = tested on: S. typhimurium 14028S; type: cell-based, Salmonella typhimurium; settings: Table 14
[5] = tested on: E. coli UB1005; type: cell-based, Escherichia coli; settings: Table 14
[6] = tested on: S. aureus (MRSA); type: cell-based, Staphylococcus aureus; settings: Table 15, strain SAP0017; in µg/mL
[7] = tested on: Pseudomonas aeruginosa H187; type: cell-based; settings: Table 15; in µg/mL

Substance | MIC P. aeruginosa H374 [1] | MIC S. epidermidis C621 [2] [µg/mL] | MIC C. albicans 105 [3] | MIC S. typhimurium 14028S [4] [µg/mL] | MIC E. coli UB1005 [5] [µg/mL] | MIC S. aureus SAP0017 [6] | MIC P. aeruginosa H187 [7]
FAKLF-NH2 [P129 (91)] | >128 | 32 | 128 | > 128 | 64 | >128 | >128
FAKLFAKLAKKFAL-NH2 [P121 (83)] | >128 | > 128 | 64 | > 128 | > 128 | >128 | >128
FAKLLAKAFKKAL-NH2 [P114 (78)] | >128 | 64 | 64 | 128 | 32 | >128 | >128
FAKLLAKKLL-NH2 [P57 (37)] | >128 | > 128 | 128 | > 128 | > 128 | >128 | >128
FAKLLAKLAK-NH2 [P123 (85)] | >128 | 16 | 64 | > 128 | 64 | >128 | >128
FAKLLAKLAKAKG-NH2 [P96 (62)] | >128 | > 128 | >128 | > 128 | > 128 | >128 | >128
FAKLLAKLAKAKL-NH2 [P65 (44)] | 64 | > 128 | 64 | > 128 | 128 | >128 | >128
FAKLLAKLAKK-NH2 [P151 (113)] | 128 | > 128 | 128 | > 128 | > 128 | >128 | >128
FAKLLAKLAKKAA-NH2 [P93 (59)] | 128 | > 128 | 64 | > 128 | 128 | >128 | >128
FAKLLAKLAKKEL-NH2 [P126 (88)] | >128 | > 128 | >128 | > 128 | > 128 | >128 | >128
FAKLLAKLAKKFAL-NH2 [P120 (82)] | 128 | > 128 | 64 | > 128 | > 128 | >128 | >128
FAKLLAKLAKKGL-NH2 [P152 (114)] | >128 | 32 | 128 | > 128 | 32 | >128 | >128
FAKLLAKLAKKSL-NH2 [P127 (89)] | >128 | 64 | 32 | > 128 | 128 | >128 | >128
FAKLLFKALKKAL-NH2 [P112 (76)] | >128 | 64 | 128 | > 128 | > 128 | >128 | >128
FAKLWAKLAKKL-NH2 [P136 (98)] | >128 | 128 | 64 | > 128 | 128 | >128 | >128
FALAKALKKAL-NH2 [P166 (127)] | >128 | > 128 | >128 | > 128 | > 128 | >128 | >128

Substance | MIC P. aeruginosa H374 [1] | MIC S. epidermidis C621 [2] [µg/mL] | MIC C. albicans 105 [3] | MIC S. typhimurium 14028S [4] [µg/mL] | MIC E. coli UB1005 [5] [µg/mL] | MIC S. aureus SAP0017 [6] | MIC P. aeruginosa H187 [7]
FALALKA-NH2 [P141 (103)] | >128 | > 128 | >128 | > 128 | > 128 | >128 | >128
FALKALKK-NH2 [P145 (107)] | >128 | > 128 | 64 | > 128 | > 128 | >128 | >128
FALKALKKAL-NH2 [P170 (131)] | >128 | > 128 | 128 | > 128 | 64 | 0.128 | >128
FALLKALKKAL-NH2 [P171 (132)] | >128 | 128 | >128 | > 128 | 32 | >128 | >128
FALLKL-NH2 [P168 (129)] | 128 | 128 | 128 | > 128 | 128 | >128 | 128
FGKGIGKVGKKLL-NH2 [P132 (94)] | >128 | > 128 | 128 | > 128 | 128 | >128 | >128
FKRLAKIKVLRLAKIKR-NH2 [P147 (109)] | 128 | 64 | 64 | 128 | 64 | >128 | >128
KAKLAKKALAKLL-NH2 [P149 (111)] | 128 | > 128 | 128 | > 128 | 32 | >128 | >128
KAKLF-NH2 [P130 (92)] | >128 | > 128 | >128 | > 128 | > 128 | >128 | >128
KFKKLAKKF-NH2 [P174 (135)] | >128 | > 128 | >128 | > 128 | > 128 | >128 | >128
KFKKLAKKW-NH2 [P175 (136)] | >128 | > 128 | >128 | > 128 | > 128 | >128 | >128
KWKLAKKALALL-NH2 [P142 (104)] | >128 | 128 | 64 | 128 | 64 | >128 | >128
KWKLF-NH2 [P131 (93)] | >128 | > 128 | >128 | > 128 | > 128 | >128 | >128
MPKEKVFLKIEKMGRNIRN-NH2 [P107 (71)] | >128 | > 128 | >128 | > 128 | > 128 | >128 | >128
VALALKALKKL-NH2 [P180 (141)] | >128 | > 128 | >128 | > 128 | > 128 | >128 | >128
YAKLLAKLAKKAL-NH2 [P155 (117)] | >128 | > 128 | >128 | > 128 | > 128 | >128 | >128
